From patent US20140113898A1, “BISARYLSULFONE AND DIALKYLARYLSULFONE COMPOUNDS AS CALCIUM CHANNEL BLOCKERS” (Zalicus Pharmaceuticals Ltd., priority 2010, published 2014)
Read-outs that look alike come from different tables or passages of the source.

Legend:
Assay type in all cases: cell-based
CaV2.2 = target: T1, CaV2.2 (Homo sapiens, UniProt Q00975); test: High-throughput CaV2.2/Kir2.3 FLIPR fluorescent assay; conditions: Fluo-4 FLIPR, closed or inactivated state not stated, read-out: FLIPR data CaV2.2
T1 construct: expressed in transfected cells; host or cells: unnamed doxycycline-inducible cell line
Procedure, shortened: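 IC50 was derived by logistic fitting of the FLIPR Fluo-4 signal recorded over 3 min after a 130 mM KCl stimulus. Before stimulation, cells (channel expression induced with doxycycline, 29 °C on assay day) were kept in pH 7.4 buffer with 2 mM KCl for the closed-state format or 12.5 mM KCl for the inactivated-state format.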

CaV3.1 = target: T2, CaV3.1 (Homo sapiens, UniProt O43497); test: High-throughput CaV3.1 T-type FLIPR fluorescent assay; conditions: Fluo-4 FLIPR
T2 construct: expressed in transfected cells; host or cells: unnamed doxycycline-inducible cell line
Protocol: Cells were plated in 384-well, clear-bottom, black-walled, poly-D-lysine coated plates (Becton Dickinson, Franklin Lake, N.J.) 2 days prior to use in the FLIPR assay. 100 μL of cells (2.0×10^6 cell/mL) containing doxycyline (Sigma-Aldrich, 1.5 μg/mL; to induce channel expression) were added to each well using a Multidrop (Thermo Scientific, Waltham, Mass.) and were maintained in 5% CO2 incubator at 37° C. On the morning of the assay, cells were transferred to a 5% CO2 incubator at 29° C.
Cells were washed with a wash buffer containing (in mM): 118 NaCl, 18.4 HEPES, 11.7 D-glucose, 0.05 CaCl2, 0.5 MgSO4, 1 KCl, and 1.2 KH2PO4, with the pH adjusted to 7.2 with NaOH. 4.4 μM of the fluorescent indicator dye, Fluo-4 (Invitrogen), prepared in pluronic acid
(Sigma-Aldrich), was loaded into the wells and incubated for 45 minutes at 29° C. in 5% CO2. Cells were then rinsed with the following low Ca^2+ buffer (in mM): 0.34 Na2HPO4, 4.2 NaHCO3, 0.44 KH2PO4, 0.41 MgSO4, 0.49 MgCl2-6H2O, 20 HEPES, 5.5 D-Glucose, 137 NaCl, 5.3 KCl, and 0.001 CaCl2, with 0.1% BSA and the pH adjusted to 7.2 with NaOH. Concentration-dependent response curves were generated from 5 mM stock solutions prepared in DMSO (Sigma-Aldrich) and diluted in the buffer containing low Ca^2+ and incubated for 20 minutes at 29° C. in 5% CO2. Calcium entry was evoked with an addition of (in mM): 0.34 Na2HPO4, 4.2 NaHCO3, 0.44 KH2PO4, 0.41 MgSO4, 0.49 MgCl2-6H2O, 20 HEPES, 5.5 D-Glucose, 137 NaCl, 5.3 KCl, and 6 CaCl2, with 0.1% BSA and the pH adjusted to 7.2 with NaOH. A change in the Fluo-4 fluorescence signal was assessed using FLIPR^TETRA™ instrument (Molecular Devices, Sunnyvale, Calif.) for 3 minutes following the elevation of extracellular KCl using an illumination wavelength of 470-495 nm with emissions recorded at 515-575 nm.
Concentration-dependent response curves were obtained by comparing the fluorescence signal in the presence of compound and fitted with a logistic function (1) to obtain the concentration that inhibited 50% (IC50) of the RLU signal using OriginPro v.7.5 software (OriginLab, Northampton, Mass.).
To assess the quality of the FLIPR assays the Z-factor (2) was used to quantify the suitability of the assay conditions using the following equation: […]
Data are expressed as mean and standard deviation (SD).

CaV3.2 = target: T3, CaV3.2 (Homo sapiens, UniProt O95180); test: High-throughput CaV3.2/Kir2.3 T-type FLIPR fluorescent assay; conditions: Fluo-4 FLIPR, closed or inactivated state not stated
T3 construct: expressed in transfected cells; host or cells: unnamed doxycycline-inducible cell line
Procedure, shortened: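 Doxycycline-induced cells loaded with Fluo-4, preincubated 20 min at 29°C with compound in 2 mM KCl (closed-state) or 7.6 mM KCl (inactivated-state) buffer, pH 7.4. Calcium entry triggered by 12 mM or 14.5 mM KCl respectively; fluorescence read 3 min by FLIPR, IC50 from logistic fit.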

T1 sequence (Q00975 whole entry): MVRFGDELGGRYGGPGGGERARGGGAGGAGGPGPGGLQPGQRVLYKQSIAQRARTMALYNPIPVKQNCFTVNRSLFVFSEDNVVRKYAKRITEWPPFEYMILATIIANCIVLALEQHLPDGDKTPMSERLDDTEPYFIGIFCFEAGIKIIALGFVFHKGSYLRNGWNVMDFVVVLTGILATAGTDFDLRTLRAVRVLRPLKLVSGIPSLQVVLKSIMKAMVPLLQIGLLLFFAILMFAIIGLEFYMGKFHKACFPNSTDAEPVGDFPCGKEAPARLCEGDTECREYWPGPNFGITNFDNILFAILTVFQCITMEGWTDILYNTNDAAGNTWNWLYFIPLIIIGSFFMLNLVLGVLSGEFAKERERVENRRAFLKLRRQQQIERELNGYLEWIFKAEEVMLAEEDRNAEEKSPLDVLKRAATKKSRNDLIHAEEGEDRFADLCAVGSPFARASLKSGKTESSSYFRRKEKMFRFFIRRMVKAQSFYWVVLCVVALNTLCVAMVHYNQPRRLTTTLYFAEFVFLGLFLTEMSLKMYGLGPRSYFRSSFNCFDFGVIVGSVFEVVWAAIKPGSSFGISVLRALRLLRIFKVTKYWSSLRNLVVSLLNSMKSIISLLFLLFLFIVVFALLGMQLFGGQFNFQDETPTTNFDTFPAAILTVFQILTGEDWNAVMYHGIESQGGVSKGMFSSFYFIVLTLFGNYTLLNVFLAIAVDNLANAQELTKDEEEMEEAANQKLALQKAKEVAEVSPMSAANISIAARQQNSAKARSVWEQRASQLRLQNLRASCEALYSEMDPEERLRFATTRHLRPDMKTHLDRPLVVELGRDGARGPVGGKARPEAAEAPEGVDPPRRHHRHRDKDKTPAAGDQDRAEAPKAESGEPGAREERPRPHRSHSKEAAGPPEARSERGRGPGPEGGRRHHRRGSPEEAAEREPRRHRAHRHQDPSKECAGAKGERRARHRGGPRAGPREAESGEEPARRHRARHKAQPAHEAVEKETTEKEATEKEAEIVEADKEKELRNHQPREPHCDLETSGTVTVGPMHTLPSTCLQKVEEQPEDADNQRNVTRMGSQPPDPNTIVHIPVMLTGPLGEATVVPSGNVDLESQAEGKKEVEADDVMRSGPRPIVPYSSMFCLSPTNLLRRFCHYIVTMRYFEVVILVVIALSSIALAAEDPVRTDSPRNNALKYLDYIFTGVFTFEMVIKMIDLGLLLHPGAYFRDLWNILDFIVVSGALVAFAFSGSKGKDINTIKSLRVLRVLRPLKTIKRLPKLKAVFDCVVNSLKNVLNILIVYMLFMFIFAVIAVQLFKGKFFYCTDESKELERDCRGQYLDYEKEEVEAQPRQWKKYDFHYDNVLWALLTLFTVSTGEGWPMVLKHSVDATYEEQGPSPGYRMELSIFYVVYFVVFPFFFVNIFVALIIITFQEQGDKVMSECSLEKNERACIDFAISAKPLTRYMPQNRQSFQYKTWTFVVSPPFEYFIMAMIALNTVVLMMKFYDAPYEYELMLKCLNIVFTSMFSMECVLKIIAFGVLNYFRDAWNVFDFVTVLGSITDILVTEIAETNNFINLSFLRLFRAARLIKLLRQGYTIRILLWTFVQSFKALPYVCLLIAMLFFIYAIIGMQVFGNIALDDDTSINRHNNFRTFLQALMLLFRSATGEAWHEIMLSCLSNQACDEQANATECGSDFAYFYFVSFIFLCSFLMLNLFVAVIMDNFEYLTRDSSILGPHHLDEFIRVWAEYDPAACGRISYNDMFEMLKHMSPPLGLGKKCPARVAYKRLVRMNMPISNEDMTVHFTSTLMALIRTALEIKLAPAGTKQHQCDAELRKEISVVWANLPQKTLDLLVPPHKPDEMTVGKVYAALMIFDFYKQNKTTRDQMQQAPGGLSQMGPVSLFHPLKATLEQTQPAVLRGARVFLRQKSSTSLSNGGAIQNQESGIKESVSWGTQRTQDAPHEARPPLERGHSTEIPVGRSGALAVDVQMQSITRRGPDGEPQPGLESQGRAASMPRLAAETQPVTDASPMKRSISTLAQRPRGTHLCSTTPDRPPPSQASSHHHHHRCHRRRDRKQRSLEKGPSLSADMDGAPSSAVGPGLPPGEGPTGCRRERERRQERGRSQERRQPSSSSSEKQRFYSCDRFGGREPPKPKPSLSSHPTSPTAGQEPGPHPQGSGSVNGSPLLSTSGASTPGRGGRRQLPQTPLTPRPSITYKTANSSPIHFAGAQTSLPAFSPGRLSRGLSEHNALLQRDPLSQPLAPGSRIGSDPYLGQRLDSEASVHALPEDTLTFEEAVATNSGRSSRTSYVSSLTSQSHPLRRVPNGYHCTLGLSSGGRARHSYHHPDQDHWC
T1 sequence (P54284 whole entry partner): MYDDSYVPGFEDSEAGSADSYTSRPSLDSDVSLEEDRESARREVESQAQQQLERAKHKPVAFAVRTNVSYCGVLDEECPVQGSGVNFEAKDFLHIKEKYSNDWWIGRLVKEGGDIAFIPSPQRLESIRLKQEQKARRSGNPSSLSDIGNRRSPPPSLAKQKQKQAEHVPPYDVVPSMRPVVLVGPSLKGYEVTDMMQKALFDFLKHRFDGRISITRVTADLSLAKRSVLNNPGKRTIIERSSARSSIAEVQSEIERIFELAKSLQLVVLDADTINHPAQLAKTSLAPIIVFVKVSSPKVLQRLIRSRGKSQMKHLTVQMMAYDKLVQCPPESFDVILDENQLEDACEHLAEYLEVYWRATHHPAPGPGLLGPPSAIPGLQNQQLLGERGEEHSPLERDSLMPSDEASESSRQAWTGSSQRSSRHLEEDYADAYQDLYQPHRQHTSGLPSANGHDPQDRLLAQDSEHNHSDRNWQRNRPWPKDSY
T1 sequence (P54289 25-946 partner limits assumed): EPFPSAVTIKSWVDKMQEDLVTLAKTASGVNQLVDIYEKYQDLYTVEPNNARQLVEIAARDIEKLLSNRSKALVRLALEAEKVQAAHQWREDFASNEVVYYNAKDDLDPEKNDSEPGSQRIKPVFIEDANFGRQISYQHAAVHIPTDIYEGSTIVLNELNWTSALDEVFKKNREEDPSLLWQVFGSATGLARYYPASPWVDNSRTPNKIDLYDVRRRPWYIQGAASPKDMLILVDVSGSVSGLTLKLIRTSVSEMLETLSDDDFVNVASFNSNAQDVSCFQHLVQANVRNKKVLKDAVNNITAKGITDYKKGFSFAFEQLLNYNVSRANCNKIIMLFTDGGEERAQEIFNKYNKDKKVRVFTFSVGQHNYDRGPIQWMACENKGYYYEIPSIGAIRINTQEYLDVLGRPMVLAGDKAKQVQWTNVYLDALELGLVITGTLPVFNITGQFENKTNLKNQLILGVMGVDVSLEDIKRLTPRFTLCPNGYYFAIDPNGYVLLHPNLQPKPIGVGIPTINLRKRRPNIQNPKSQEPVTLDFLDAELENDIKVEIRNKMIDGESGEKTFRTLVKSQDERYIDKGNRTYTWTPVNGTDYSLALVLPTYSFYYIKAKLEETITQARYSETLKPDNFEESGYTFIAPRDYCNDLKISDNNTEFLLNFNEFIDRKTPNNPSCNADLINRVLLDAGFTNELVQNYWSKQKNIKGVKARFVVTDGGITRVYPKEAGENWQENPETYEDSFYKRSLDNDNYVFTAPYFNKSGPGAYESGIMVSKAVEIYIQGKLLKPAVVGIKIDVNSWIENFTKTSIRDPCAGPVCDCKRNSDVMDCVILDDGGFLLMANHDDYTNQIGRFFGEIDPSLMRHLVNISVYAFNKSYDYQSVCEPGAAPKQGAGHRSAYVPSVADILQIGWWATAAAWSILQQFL
T1 sequence (P54289 947-1103 partner limits assumed): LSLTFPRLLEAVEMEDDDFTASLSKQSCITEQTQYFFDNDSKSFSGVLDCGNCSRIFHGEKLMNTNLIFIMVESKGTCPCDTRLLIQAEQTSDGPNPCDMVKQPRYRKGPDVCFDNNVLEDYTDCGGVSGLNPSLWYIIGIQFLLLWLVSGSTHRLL

Row | Structure (SMILES) | IC50 (CaV2.2; Table 4) [µM] | IC50 (CaV3.1; Table 4) [µM] | IC50 (CaV3.2; Table 4) [µM] | IC50 (CaV2.2; Table 5) [µM] | IC50 (CaV3.1; Table 5) [µM] | IC50 (CaV3.2; Table 5) [µM]
1 | O=C(NCc1ccc(S(=O)(=O)c2cccc(C(F)(F)F)c2)cn1)[C@H]1C[C@@H](C2CCCCC2)CN1 [Compound 107, (2R,4S)-4-cyclohexyl-N-((5-((3-(trifluoromethyl)phenyl)sulfonyl)pyridin-2-yl)methyl)pyrrolidine-2-carboxamide] | 0.45 | 6.98 | 2.09 | – | – | –
2 | CC(C)S(=O)(=O)c1cc(C(F)(F)F)cnc1C(=O)NCc1ccc(S(=O)(=O)c2cccc(C(F)(F)F)c2)cn1 [Compound 96, 3-(isopropylsulfonyl)-5-(trifluoromethyl)-N-((5-((3-(trifluoromethyl)phenyl)sulfonyl)pyridin-2-yl)methyl)picolinamide] | 0.64 | 1.56 | 2.14 | – | – | –
3 | CC(C)(CCNC(=O)C(C)(C)S(=O)(=O)c1cccc(C(F)(F)F)c1)S(=O)(=O)c1cccc(C(F)(F)F)c1 [Compound 150, 2-methyl-N-(3-methyl-3-((3-(trifluoromethyl)phenyl)sulfonyl)butyl)-2-((3-(trifluoromethyl)phenyl)sulfonyl)propanamide] | – | – | – | 0.25 | 1.77 | 1.02
4 | CS(=O)(=O)c1cc(C(=O)NCc2ccc(S(=O)(=O)c3cccc(C(F)(F)F)c3)cn2)cc(C(F)(F)F)n1 [Compound 94, 2-(methylsulfonyl)-6-(trifluoromethyl)-N-((5-((3-(trifluoromethyl)phenyl)sulfonyl)pyridin-2-yl)methyl)isonicotinamide] | 0.82 | 1.63 | 1.45 | – | – | –
5 | CN(CCc1c[nH]c2ccc(F)cc12)C(=O)C(C)(C)S(=O)(=O)c1cccc(C(F)(F)F)c1 [Compound 135, N-(2-(5-fluoro-1H-indol-3-yl)ethyl)-N,2-dimethyl-2-((3-(trifluoromethyl)phenyl)sulfonyl)propanamide] | – | – | – | 1.29 | 7.95 | 5.84
6 | CC(C)(C(=O)NCc1cccc(C(F)(F)F)c1)S(=O)(=O)c1cccc(C(F)(F)F)c1 [Compound 124, 2-methyl-N-(3-(trifluoromethyl)benzyl)-2-((3-(trifluoromethyl)phenyl)sulfonyl)propanamide] | – | – | – | 0.75 | 4.25 | 5.62
7 | O=C(NCc1cc(S(=O)(=O)c2cccc(C(F)(F)F)c2)ccn1)[C@@H]1C[C@@H](C2CCCCC2)CN1 [Compound 118, (2S,4S)-4-cyclohexyl-N-((4-((3-(trifluoromethyl)phenyl)sulfonyl)pyridin-2-yl)methyl)pyrrolidine-2-carboxamide] | 0.76 | 4.76 | 2.4 | – | – | –
8 | Cn1nc(C(F)(F)F)cc1C(=O)NCc1cc(S(=O)(=O)c2cccc(C(F)(F)F)c2)ccn1 [Compound 109, 1-methyl-3-(trifluoromethyl)-N-((4-((3-(trifluoromethyl)phenyl)sulfonyl)pyridin-2-yl)methyl)-1H-pyrazole-5-carboxamide] | 0.82 | 6.53 | 3.97 | – | – | –
9 | O=C(NCc1ccc(S(=O)(=O)c2cccc(C(F)(F)F)c2)cc1)c1ccc(C(F)(F)F)cn1 [Compound 4, 5-(trifluoromethy)-N-(4-((3-(trifluoromethyl)phenyl)sulfonyl)benzyl)picolinamide] | 0.45 | 1.48 | 0.38 | – | – | –
10 | CS(=O)(=O)c1cc(C(F)(F)F)cnc1C(=O)NCc1ccccc1S(=O)(=O)c1cccc(C(F)(F)F)c1 [Compound 43, 3-(methylsulfonyl)-5-(trifluoromethyl)-N-(2-((3-(trifluoromethyl)phenyl)sulfonyl)benzyl)picolinamide] | 0.67 | 1.42 | 3.38 | – | – | –
11 | O=C(NCc1ccc(S(=O)(=O)c2cccc(C(F)(F)F)c2)cc1)c1ccc(Cl)c(F)c1 [Compound 1, 4-chloro-3-fluoro-N-(4-((3-(trifluoromethyl)phenyl)sulfonyl)benzyl)benzamide] | 0.76 | 1.29 | 0.62 | – | – | –
12 | CC(C)S(=O)(=O)c1cc(C(F)(F)F)cnc1C(=O)NCc1ccccc1S(=O)(=O)c1cccc(C(F)(F)F)c1 [Compound 44, 3-(isopropylsulfonyl)-5-(trifluoromethyl)-N-(2-((3-(trifluoromethyl)phenyl)sulfonyl)benzyl)picolinamide] | 0.23 | 0.72 | 1.03 | – | – | –
13 | O=C(NCc1cccc(S(=O)(=O)c2cccc(C(F)(F)F)c2)c1)c1cc(F)cc(Cl)c1 [Compound 18, 3-chloro-5-fluoro-N-(3-((3-(trifluoromethyl)phenyl)sulfonyl)benzyl)benzamide] | 0.22 | 1.57 | 0.84 | – | – | –
14 | O=C(NCc1ccc(S(=O)(=O)c2cccc(C(F)(F)F)c2)cn1)c1ccc(C(F)(F)F)nc1 [Compound 90, 6-(trifluoromethyl)-N-((5-((3-(trifluoromethyl)phenyl)sulfonyl)pyridin-2-yl)methyl)nicotinamide] | 0.61 | 0.9 | 2.07 | – | – | –
15 | CS(=O)(=O)c1cc(C(F)(F)F)cnc1C(=O)NCc1cccc(S(=O)(=O)c2cccc(C(F)(F)F)c2)c1 [Compound 24, 3-(methylsulfonyl)-5-(trifluoromethyl)-N-(3-((3-(trifluoromethyl)phenyl)sulfonyl)benzyl)picolinamide] | 0.41 | 3.24 | 0.55 | – | – | –
16 | CC(C)(C(=O)Nc1ccc(Oc2ccc(C(F)(F)F)cn2)nc1)S(=O)(=O)c1cccc(OC(F)(F)F)c1 [Compound 123, 2-methyl-2-((3-(trifluoromethoxy)phenyl)sulfonyl)-N-(6-((5-(trifluoromethyl)pyridin-2-yl)oxy)pyridin-3-yl)propanamide] | – | – | – | 0.92 | 4.99 | 3.01
17 | CS(=O)(=O)c1nc(C(F)(F)F)ccc1C(=O)NCc1ccc(S(=O)(=O)c2cccc(C(F)(F)F)c2)cc1 [Compound 6, 2-(methylsulfonyl)-6-(trifluoromethyl)-N-(4-((3-(trifluoromethyl)phenyl)sulfonyl)benzyl)nicotinamide] | 0.71 | 2.34 | 1.51 | – | – | –
18 | O=C1c2cc(C(F)(F)F)nn2CCN1Cc1ccccc1S(=O)(=O)c1cccc(C(F)(F)F)c1 [Compound 35, 2-(trifluoromethyl)-5-(2-((3-(trifluoromethyl)phenyl)sulfonyl)benzyl)-6,7-dihydropyrazolo[1,5-a]pyrazin-4(5H)-one] | 1.22 | 1.85 | 1.74 | – | – | –
19 | O=C(NCc1ccccc1S(=O)(=O)c1cccc(C(F)(F)F)c1)c1ccc(C(F)(F)F)cn1 [Compound 39, 5-(trifluoromethyl)-N-(2-((3-(trifluoromethyl)phenyl)sulfonyl)benzyl)picolinamide] | 0.74 | 1.04 | 1.25 | – | – | –
20 | O=C(NCc1ccc(S(=O)(=O)c2cccc(C(F)(F)F)c2)cn1)c1cn2cc(C(F)(F)F)ccc2n1 [Compound 103, 6-(trifluoromethyl)-N-((5-((3-(trifluoromethyl)phenyl)sulfonyl)pyridin-2-yl)methyl)imidazo[1,2-a]pyridine-2-carboxamide] | 0.83 | 2.06 | 1.25 | – | – | –
21 | CS(=O)(=O)c1cc(C(=O)NCc2ccccc2S(=O)(=O)c2cccc(C(F)(F)F)c2)cc(C(F)(F)F)n1 [Compound 42, 2-(methylsulfonyl)-6-(trifluoromethyl)-N-(2-((3-(trifluoromethyl)phenyl)sulfonyl)benzyl)isonicotinamide] | 0.64 | 2.89 | 3.24 | – | – | –
